# Reference: publication PMC9149975, “The diaryl-imidazopyridazine anti-plasmodial compound, MMV652103, exhibits anti-breast cancer activity” (EXCLI Journal, 2022)
# Where two headings read alike, the source gives them in different places.
# Assays:
# [1] = target: T1, PI4K2B (Homo sapiens, UniProt Q8TCG2); experiment: ADP-Glo lipid kinase assay, PI4K2B; type: biochemical; details: 10 µM compound
# T1 construct: purchased Carna Biosciences Inc; Invitrogen Corporation
# [2] = target: T2, PI4KB (Homo sapiens, UniProt Q9UBF8); experiment: ADP-Glo lipid kinase assay, PI4KB; type: biochemical
# T2 construct: purchased Carna Biosciences Inc; Invitrogen Corporation
# T2 sequence (Q9UBF8 whole entry): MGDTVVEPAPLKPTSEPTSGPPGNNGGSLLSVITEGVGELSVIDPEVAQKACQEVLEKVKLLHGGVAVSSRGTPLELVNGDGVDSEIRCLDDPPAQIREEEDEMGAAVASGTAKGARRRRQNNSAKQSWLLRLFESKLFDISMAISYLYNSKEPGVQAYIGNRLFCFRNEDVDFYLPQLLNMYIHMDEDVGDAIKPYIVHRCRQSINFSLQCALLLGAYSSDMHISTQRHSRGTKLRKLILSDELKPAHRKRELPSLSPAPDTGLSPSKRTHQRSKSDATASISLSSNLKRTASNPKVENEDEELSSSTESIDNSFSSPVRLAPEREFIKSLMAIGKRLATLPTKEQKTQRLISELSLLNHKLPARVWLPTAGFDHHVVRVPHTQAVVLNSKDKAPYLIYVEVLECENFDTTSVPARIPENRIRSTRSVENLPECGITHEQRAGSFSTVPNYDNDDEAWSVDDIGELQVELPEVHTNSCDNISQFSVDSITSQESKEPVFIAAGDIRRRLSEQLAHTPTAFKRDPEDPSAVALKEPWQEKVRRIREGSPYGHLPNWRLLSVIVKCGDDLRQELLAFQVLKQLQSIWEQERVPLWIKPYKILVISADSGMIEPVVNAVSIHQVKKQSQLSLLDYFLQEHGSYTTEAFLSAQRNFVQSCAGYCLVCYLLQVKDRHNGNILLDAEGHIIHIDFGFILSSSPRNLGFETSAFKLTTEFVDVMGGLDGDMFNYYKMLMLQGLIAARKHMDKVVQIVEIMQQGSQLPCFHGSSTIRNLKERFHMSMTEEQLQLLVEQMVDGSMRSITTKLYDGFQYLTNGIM
# Protocol: A non-radiometric kinase assay (ADP-Glo™ Assay, Promega, Madison, Wi, USA) was used for measuring the kinase activity of the 2 lipid kinases, phosphatidylinositol 4-kinase beta (encoded by the PI4KB gene) and phosphatidylinositol-4-Phosphate 3-Kinase Catalytic Subunit Type 2 Gamma (encoded by the PIK3C2G gene). All kinase assays were performed in 96-well half-area microtiter plates from Greiner Bio-One (Frickenhausen, Germany) in 25 µl reaction volumes. […] In addition, the assay for PI4KB contained 3 mM MnCl2 and the assay for PIK3C2G contained 3 mM MgCl2. Kinases from external vendors (Carna Biosciences Inc.; Invitrogen Corporation; Millipore Corporation) were expressed, purified and quality-controlled by virtue of the vendors readings. The reaction cocktails were incubated at 30 °C for 60 min. The reaction was stopped with 25 µl ADP-Glo reagent per well. Plates were incubated for 40 min at RT, followed by the addition of 50 µl kinase detection reagent per well and incubation for 60 min at RT. Signal was determined with a microplate luminescence reader (Victor, Perkin Elmer). […]
# For each kinase, the median value of the counts per second (cps) of three wells with complete reaction cocktails, but without kinase, was defined as "low control" (n=3). […] The residual activity (in %) for each well of each row of a particular plate was calculated by using the following formula: […]
# [3] = system: MCF7 cells; experiment: Scratch motility assay, MCF7; type: cell-based, human; details: IC50 and 2 x IC50; 3, 6, 9 h
# Protocol: Cells were grown to 100 % confluence in 12-well tissue culture plates and the following day a sterile 2 µl pipette tip was used to make a vertical scratch in the cell monolayer of each well and the cells treated with mitomycin C (M4287; Sigma Aldrich) at a final concentration of 10 μg/ml to inhibit proliferation. Cells were subsequently treated with MMV652103 or vehicle and imaged at 0, 3, 6 and 9 h post wound formation and ImageJ v1.50i software was used to calculate the area of the scratch (Schneider et al., 2012[73]). The total areas migrated was determined by subtracting the area for a specific time point from the area measured at 0 h.
# [4] = system: T47D (ER+) breast cancer cells; experiment: MTT cytotoxicity assay, T47D; type: cell-based, human; details: for IC50: Homo sapiens, T47D
# From the text: Human estrogen-receptor positive (ER+) breast adenocarcinoma cell lines, MCF7 and T47D, were maintained in Roswell Park Memorial Institute-1640 medium (Sigma Aldrich, Missouri, USA) and the human epidermal growth factor receptor 2 positive (HER2+) BT474, and triple negative (TNBC) MDA-MB-231 and MDA-MB-468 cells were maintained in Dulbecco's Modified Eagle's Medium (DMEM) (Sigma Aldrich, Missouri, USA). FG0 human skin fibroblasts (provided by Associate Professor Denver Hendricks, University of Cape Town) were maintained in DMEM while the normal breast epithelial cell line MCF12A was maintained in DMEM:nutrient mixture F-12 (DMEM/F12; 1:1; Sigma Aldrich, Missouri, USA), supplemented with 20 ng/ml epidermal growth factor, 100 ng/ml cholera toxin, 500 ng/ml hydrocortisone and 10 µg/ml insulin. All media were supplemented with 10 % fetal bovine serum, 100 U/ml penicillin and 100 µg/ml streptomycin. Cells were maintained at 37 °C in a 5 % CO2 and 95 % air-humidified incubator. Media was replaced every 2-3 days and cells were routinely tested for mycoplasma infection.
# (§1) Cells (3.5×10^3-6×10^3 / well) were seeded in 96-well plates and treated at a 60-70 % confluence with a range of concentrations (0-10 μM) of test compounds or vehicle for 48 h. Cell viability was measured using the 3-(4,5-dimethylthiazol-2-yl)-2,5-diphenyl-trazolium bromide (MTT) assay (11465007001; Sigma Aldrich) according to the manufacturer's instructions. Mean cell viability was calculated as a percentage of the mean vehicle control. A minimum of three independent experiments in quadruplicate were performed from which the IC50 was determined from sigmoidal plots using GraphPad Prism version 6.0 (GraphPad Software, California, USA). The selectivity index (SI) was determined by dividing the IC50 of a non-malignant cell line by the IC50 of a cancer cell line.
# [5] = system: MCF12A (normal breast epithelial cell line); experiment: MTT cytotoxicity assay, MCF12A; type: cell-based; details: Homo sapiens, MCF-12A, 48 h, Fig 2C summary, MTT 48 h; read-out: IC50 ± SEM MCF12A
# Protocol: (§2) Human estrogen-receptor positive (ER+) breast adenocarcinoma cell lines, MCF7 and T47D, were maintained in Roswell Park Memorial Institute-1640 medium (Sigma Aldrich, Missouri, USA) and the human epidermal growth factor receptor 2 positive (HER2+) BT474, and triple negative (TNBC) MDA-MB-231 and MDA-MB-468 cells were maintained in Dulbecco's Modified Eagle's Medium (DMEM) (Sigma Aldrich, Missouri, USA). […]
# as §1, with “line. […]” for “line.”
# [6] = MTT cytotoxicity assay, MCF12A; type: cell-based; details: human, MCF12A non-malignant breast epithelial cells, MTT, read-out: Cytotoxicity assays (MTT) IC50 MCF12A
# Protocol: as §2
# as §1, with “line. […]” for “line.”
# [7] = system: MCF7 cells; experiment: GSH-Glo Glutathione assay; type: cell-based, human; details: MCF7, 24 h; MMV652103 ½ IC50 and IC50, doxorubicin IC50 (9.84 nM)
# Protocol: The increase in ROS levels results in a decrease in the levels of antioxidants. To confirm the presence of intracellular ROS, the levels of the antioxidant, glutathione (GSH), was measured using the GSH-Glo™ Glutathione assay kit (V6911, Promega, Wisconsin, USA), according to the manufacturer's instructions. Briefly, cells (2500-4500 cells per well) were seeded in opaque 96 well plates. Cells were treated for 24 h with either vehicle or MMV652103. Thereafter, the cell culture medium was removed and 100 μl of 1X GSH-Glo™ Reagent (prepared using Luciferin-NT substrate and Glutathione S-Transferase each diluted 1:100 in GSH-Glo™ Reaction Buffer) was added to each well. The plate was then mixed briefly on a shaker and incubated for 10 min at RT. Thereafter, 100 μl reconstituted Luciferin Detection Reagent was added to each well. The plate was then incubated for 15 min RT in order to stabilize the luminescence signal. The plate was read using the GloMax® Explorer Multimode plate reader (Promega, Wisconsin, USA).
# T1 sequence (Q8TCG2 whole entry): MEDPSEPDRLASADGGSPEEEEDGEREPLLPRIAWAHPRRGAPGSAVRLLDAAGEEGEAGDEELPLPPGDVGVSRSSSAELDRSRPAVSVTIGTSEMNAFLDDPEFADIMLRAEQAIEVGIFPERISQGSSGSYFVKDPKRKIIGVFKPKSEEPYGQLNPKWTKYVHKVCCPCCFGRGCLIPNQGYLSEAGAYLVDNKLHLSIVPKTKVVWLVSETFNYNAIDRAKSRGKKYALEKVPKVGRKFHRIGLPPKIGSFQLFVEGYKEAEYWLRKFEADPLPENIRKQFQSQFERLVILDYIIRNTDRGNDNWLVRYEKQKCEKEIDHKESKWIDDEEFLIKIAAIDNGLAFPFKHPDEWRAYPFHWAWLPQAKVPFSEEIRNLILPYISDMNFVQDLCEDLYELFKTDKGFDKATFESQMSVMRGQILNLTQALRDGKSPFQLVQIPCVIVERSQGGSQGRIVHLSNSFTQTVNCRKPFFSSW
smiles,measurement,setting,value
CS(=O)(=O)c1ccc(-c2cnc3ccc(-c4cccc(S(C)(=O)=O)c4)nn23)cc1 [MMV652103],remaining activity at 10 µM,[1],50%
same,remaining activity at 10 µM,[2]; 10 µM compound,23%
same,IC50,[2]; ADP-Glo,1700 nM
same,MCF7 cell migration,[3],significant reduction
same,IC50,"[4]; Fig 2C summary, MTT 48 h, read-out: IC50 ± SEM T47D",2900 ± 1100 nM
same,IC50,"[4]; MTT, 48 h, read-out: IC50 T47D",2900 nM
same,SI FG0 (T47D),[4]; IC50 FG0 / IC50 T47D,> 2
same,IC50,[5],6600 ± 1070 nM
same,IC50 at 48 h,[6],6640 nM
same,levels of GSH,[7],significant decrease
